Assay results taken from patent US20090068143A1, “ORALLY EFFECTIVE C[…]” (priority 2005, published 2009).
Converted amounts (≈) assume the structure as drawn. Read-outs that look alike come from different tables or passages of the source. Marks after values point to notes of the source that are not given here.

Key:
[1] = Actual solubility in aqueous buffers / cosolvent (HPLC, spectrophotometer); format: physicochemical; settings: for solubility: thermodynamic from solid
Procedure: The actual solubility of certain compounds of the invention was assessed in aqueous buffers and final concentration of compounds was determined using HPLC and spectrophotometer methodologies. […] Therefore, compounds that were designed following the same rational yielded unexpectedly divergent outcome, for instance in connection with solubility in aqueous solutions.
It should be noted that following lyophilization compound 18F could be dissolved in 80 mM phosphate buffer at pH 6.9 even more efficiently at concentrations up to 60 mg/ml, about two order of magnitudes higher than expected.
Approximately 11 g of compound 18F were lyophilized in one lyophilization cycle. A cosolvent mixture comprising 38.6% w/v of compound 18F was divided into several dishes to fit the lyophilization chamber. As a result of lyophilization, a dry product with improved physical properties such as flowability and less stickiness was obtained.

IL-1β = assay: Real-time RT-PCR gene expression in CNS of MOG induced EAE: IL-1β; format: in vivo, mouse
Procedure: (§1) Total RNA is prepared using SV total RNA isolation system (Promega). The brains and spinal cords, which were removed on day 31 from five animals treated with vehicle (i.e. untreated) or 40 mg/kg p.o. of compound 18F (i.e. treated) in the MOG-induced EAE study, were homogenized in lysis buffer. The lysates were transferred to an RNA isolation column, treated with DNAse, washed and eluted according to kit instructions. RNA concentrations were determined using GeneQuant II (Pharmacia-Amersham). Complementary DNA (cDNA) was synthesized from total RNA using […] II reverse transcriptase (Life Technologies). 2 μg of total RNA were combined with an oligo (dT)15 primer, 0.5 mM dNTP mix, 8 units of reverse transcriptase and other reaction components up to a final volume of 20 μl, according to the kit instructions. The reaction mixture was incubated at 42° C. for 45 min and inactivated at 70° C. for 15 minutes. Quantitative real-time RT-PCR included 1 μl of the cDNA, 300 nM of the appropriate forward and reverse primers (according to the gene monitored) and 7.5 μl of the reaction mix containing buffer, nucleotides, Taq polymerase and SYBER green (SYBER Green master mix, Applied Biosystems), in a total reaction volume of 15 μl. Gene amplification was obtained using the GeneAmp 5700 sequence detection system (Applied Biosystems). […] During each annealing step, the amount of the amplified product was measured by the fluorescence of the double strand DNA binding dye, SYBER Green. The cycle of threshold (CT), representing the PCR cycle at which an increase in fluorescence above a baseline signal can be first detected, was determined for each product. […] Results were expressed as fold increase of gene expression in treated or untreated animals above the naive animals. […]
The results expressed as folds gene expression over naive animals (following normalization to Cyclophilin) are compiled in the following table. […] Statistical significance was analyzed by unpaired two-tailed t-test and one asterisk (*) indicates statistical significance of p<0.05, whereas ** indicates statistical significance of p<0.01.

F4/80 = assay: Real-time RT-PCR gene expression in CNS of MOG induced EAE: F4/80; format: in vivo, mouse; settings: 40 mg/kg p.o., day 31; over naive animals
Procedure: as §1, with “2 μg of total RNA were combined with an oligo (dT)15 primer, 0.5 mM dNTP mix, 8 units of reverse transcriptase and other reaction components up to a final volume of 20 μl, according to the kit instructions. The reaction mixture was incubated at 42° C. for 45 min and inactivated at 70° C. for 15 minutes.” left out, “μl.” for “μl. Gene amplification was obtained using the GeneAmp 5700 sequence detection system (Applied Biosystems).”

400 Gene Array = assay: Gene array analysis of spinal cords, MOG induced EAE; format: in vivo, mouse; settings: out of the 400 genes tested
Procedure: In an additional study, the gene expression profiling was performed using a 400 Gene Array series kit of SuperArray Bioscience Corporation according to manufacturer protocol and RNA extracted from spinal cords of treated or untreated animals, as above described. The scanned data were converted to mRNA expression levels and analyzed using two softwares, ScanAlayze and GEArray Analyzer. […] The genes so identified will be further analyzed by real time RT-PCR at other time points during disease progression. It is interesting to note that the genes whose expression is altered in MOG induced EAE animals following treatment with compounds of the invention broadly speaking encode for proteins involved in the immune system, such as STAT proteins which are involved in signal transduction of several cytokines and growth factors, JAK kinases, β2-microglobulin, TNF-receptor superfamily, calmodulins, and cyclin-dependent kinases.

visceral pain = assay: Visceral pain, acetic acid induced writhing responses; format: in vivo, ICR mice; settings: for number of writhing responses: alone or combined with 0.5 mg/kg CPZ; for reduction of writhing responses as compared to vehicle treated animals: second study
Procedure: For the i.v. part of the study, compounds were dissolved in CREMOPHOR®:Ethanol and diluted 1:20 in saline prior to injection, fifteen minutes before pain induction. When compounds were delivered per os, they were dissolved in phosphate buffer or in CREMOPHOR®:Ethanol as previously described and administered 1 hour before pain induction. Each treatment group, except for controls comprising at least 30 animals, was composed of at least 6 animals. Fifteen or sixty minutes later, depending on the route selected for drug administration, the mice were injected i.p. with 10 ml/kg of 0.6% acetic acid and the number of visceral pain related behaviors (writhing, stretching, contractions of the abdomen accompanied by an elongation of the body and extension of the hind limbs) is counted over a period of 5 minutes, starting 5 minutes after the acetic acid administration. These visceral pain related behaviors are globally defined as writhing responses (WR). The results are expressed as mean number of writhing responses±SEM. Data were analyzed using analysis of variance (ANOVA) followed by post-hoc Fisher test. A value of p<0.05 was considered to be statistically significant and is indicated on the figure by an asterisk over the relevant treatment group.
The following results were obtained at 2 mg/kg i.v. of test compounds or, in the case of the study performed with cannabinoid receptor antagonists, 1 mg/kg test compound or antagonist alone and 1 mg/kg test compound+1 mg/kg antagonist. In a separate study, it was shown that analgesic activity of compounds of the invention was dose related.

acute pain = settings: pretreatment, administered orally; cited from earlier work

CCCCCCC(C)(C)c1cc(O)c([C@H]2CC(=O)C3CC2C3(C)C)c(OC(=O)/C=C/C(=O)O)c1 (single isomer, unassigned; (-)) [Compound 18F, (−)-4-{4-[1,1-Dimethylheptyl]-2-fumarate-6-hydroxy-phenyl}-6,6-dimethyl-bicyclo[3.1.1]heptan-2-one]
solubility ([1]; 80 mM phosphate buffer, aqueous buffer, 80 mM phosphate buffer, read-out: solubility of non-lyophilized material): ~10 mg/mL (≈ 21.2 mM)
solubility ([1]; 80 mM phosphate buffer, pH 6.9, aqueous buffer, lyophilized, 80 mM phosphate buffer, pH 6.9, read-out: solubility following lyophilization): ≤ 60 mg/mL
solubility ([1]; 80 mM phosphate buffer, pH 7.8, aqueous buffer, 80 mM phosphate buffer, pH 7.8, read-out: actual solubility): ≤ 12 mg/mL
actual solubility higher than expected ([1]; 80 mM phosphate buffer, pH 7.8 vs calculated): about 20 fold
dissolution in organic cosolvent solution ([1]; tert.butanol and water 62.5:32.5 (v/v)): up to 80 mg/ml
Fold gene expression IL-1β, Brain, Treated (IL-1β; 40 mg/kg p.o., day 31, over naive animals, untreated 5.5): 3* fold
Fold gene expression IL-1β, Spinal Cord, Treated (IL-1β; 40 mg/kg p.o., day 31, over naive animals, untreated 11): 4* fold
IL-1β overexpression in brain and spinal cord (IL-1β; treated p.o., untreated 5 to 11-fold): 3-4 fold
Fold gene expression F4/80, Brain, Treated (F4/80): 1.5 fold
Fold gene expression F4/80, Spinal Cord, Treated (F4/80): 5.5 fold
genes down-regulated or up-regulated by more than 1.5 fold upon treatment (400 Gene Array): twenty
number of writhing responses (visceral pain; 0.5 mg/kg compound 18F i.v.): 10
reduction of writhing responses as compared to vehicle treated animals (visceral pain; 0.5 mg/kg i.v.): 64%
number of writhing responses (visceral pain; 1 mg/kg compound 18F i.v.): 9
inhibition of the number of writhing responses (visceral pain; 1 mg/kg i.v.): 71%
effect of addition of CB1 antagonist on analgesic activity (visceral pain; 1 mg/kg i.v. + 1 mg/kg SR141716A): only partially reversed
effect of addition of CB2 antagonist on analgesic activity (visceral pain; 1 mg/kg i.v. + 1 mg/kg SR144528): significantly reversed
inhibition of writhing responses as compared to vehicle treated group (visceral pain; 2 mg/kg i.v.): 94%
reduction of writhing responses as compared to vehicle treated animals (visceral pain; 2 mg/kg i.v.): 98%
inhibition of writhing responses (visceral pain; 10 mg/kg p.o. in CREMOPHOR®:Ethanol): 71%
inhibition of pain response as compared to untreated animals (visceral pain; 10 mg/kg p.o. in phosphate buffer): 61%
dose from which reduction of writhing responses was significant (visceral pain; p.o. in phosphate buffer): 10 mg/kg
inhibition of writhing responses (visceral pain; p.o. in phosphate buffer, highest dose tested (5 to 60 mg/kg)): 93%
efficacy against acute pain (acute pain): effective against acute pain
